This note sets out measurements from publication PMC8743659, “C1632 suppresses the migration and proliferation of non‐small‐cell lung cancer cells involving LIN28 and FGFR1 pathway” (Journal of Cellular and Molecular Medicine, 2021).

The subject of series [1] is matrix metalloproteinase-9 (MMP-9). The experiment in a line: Western blot of MMP-9. The series is classed as cell-based, human. The settings on record: A549 and A549R cells, 5 days. On the procedure: The total cell protein was extracted and denaturized at 95°C for 10 min. Samples were separated in SDS‐PAGE gel, then transferred to a PVDF membrane. Then this membrane was blocked with 5% non‐fat milk (solved in TBST) for 2.5 h at room temperature. Blots were probed with relevant primary antibodies against FGFR1 (CST), p‐FGFR1 (CST), MAPK (CST), p‐MAPK (CST), FAK (CST), p‐FAK (CST), MMP‐9 (CST), LIN28B (CST), GAPDH (CST), and β‐actin (proteintech) overnight at 4°C, respectively. Then the lanes were detected with HRP‐conjugated secondary antibodies and visualized using WESTAR SUPERNOVA kit (CYANAGEN).
In general terms: A western blot detects proteins with antibodies after separation by electrophoresis.

For another series, the target named is T1, CYP2C11 (Rattus norvegicus, UniProt P08683).
T1 construct: 3.4 mg/ml pooled rat liver microsomes; from tissue; host or cells: pooled rat liver microsomes
T1 sequence (P08683 1-500): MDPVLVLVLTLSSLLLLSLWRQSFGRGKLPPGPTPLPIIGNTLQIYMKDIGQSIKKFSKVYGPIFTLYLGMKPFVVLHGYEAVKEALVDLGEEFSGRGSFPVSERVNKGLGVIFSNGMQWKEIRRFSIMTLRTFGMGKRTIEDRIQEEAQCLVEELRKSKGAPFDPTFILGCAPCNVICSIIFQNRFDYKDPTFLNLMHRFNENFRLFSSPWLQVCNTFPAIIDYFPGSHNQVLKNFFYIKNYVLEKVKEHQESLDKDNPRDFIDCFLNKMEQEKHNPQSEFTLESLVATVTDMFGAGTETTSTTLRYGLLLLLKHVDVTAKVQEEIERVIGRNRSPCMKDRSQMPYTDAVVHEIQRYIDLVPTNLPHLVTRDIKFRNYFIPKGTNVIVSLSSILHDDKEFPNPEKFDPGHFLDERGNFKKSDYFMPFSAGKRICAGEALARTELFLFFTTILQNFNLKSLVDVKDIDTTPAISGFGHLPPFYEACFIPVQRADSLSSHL
The experiment in a line: Microsomal incubation (cocktail) assay, rat liver microsomes. It counts as in vitro ADME. The settings on record: 100 μM C1632, probe 250 μM tolbutamide, 30 min, 37°C. The procedure: (§1) The microsomal incubation assay[41] was performed at 37°C in a 200 μl incubation system, which consisted of 3.4 mg/ml pooled rat liver microsomes, 100 μM C1632, and probe substrates (5 μM CYP3A2‐midazolam; 10 μM CYP2D1‐dextromethorphan; 250 μM CYP2C11‐tolbutamide; 10 μM CYP2B1‐bupropion; and 0.1 M Tris–HCl [pH 7.4]). After 5 min of incubation, 1 mM NADPH was added, and the assay was terminated after 30 min by cooling at −80°C. Next, 0.2 ml acetonitrile and 20 μl IS (100 ng/ml) were added to the reactant. Finally, the solution was thoroughly vortexed and centrifuged at 12,000 rpm for 10 min. The supernatant was analysed by UHPLC‐MS/MS.[42]

The target of another series is T2, CYP3A2 (Rattus norvegicus, UniProt P05183).
T2 construct: 3.4 mg/ml pooled rat liver microsomes; from tissue; host or cells: pooled rat liver microsomes
T2 sequence (P05183 1-504): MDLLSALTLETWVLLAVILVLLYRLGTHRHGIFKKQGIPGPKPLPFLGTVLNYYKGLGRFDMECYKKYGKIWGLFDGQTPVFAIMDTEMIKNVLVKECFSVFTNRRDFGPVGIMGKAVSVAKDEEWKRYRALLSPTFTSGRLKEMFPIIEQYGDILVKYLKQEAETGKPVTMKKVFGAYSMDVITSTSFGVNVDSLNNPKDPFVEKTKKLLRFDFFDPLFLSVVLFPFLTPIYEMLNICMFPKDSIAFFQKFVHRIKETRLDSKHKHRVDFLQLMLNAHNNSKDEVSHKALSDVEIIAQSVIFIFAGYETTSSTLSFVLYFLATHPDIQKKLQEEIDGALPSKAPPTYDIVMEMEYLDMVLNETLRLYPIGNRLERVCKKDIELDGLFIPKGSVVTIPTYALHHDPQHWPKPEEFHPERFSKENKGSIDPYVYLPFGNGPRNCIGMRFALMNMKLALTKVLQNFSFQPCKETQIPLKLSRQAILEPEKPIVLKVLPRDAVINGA
The series is described as above. The series is classed as in vitro ADME. To be noted: 100 μM C1632, probe 5 μM midazolam, 30 min, 37°C. The procedure:
as §1

A further series has as its target T3, CYP2B1 (Rattus norvegicus, UniProt P00176).
T3 construct: 3.4 mg/ml pooled rat liver microsomes; from tissue; host or cells: pooled rat liver microsomes
T3 sequence (P00176 1-491): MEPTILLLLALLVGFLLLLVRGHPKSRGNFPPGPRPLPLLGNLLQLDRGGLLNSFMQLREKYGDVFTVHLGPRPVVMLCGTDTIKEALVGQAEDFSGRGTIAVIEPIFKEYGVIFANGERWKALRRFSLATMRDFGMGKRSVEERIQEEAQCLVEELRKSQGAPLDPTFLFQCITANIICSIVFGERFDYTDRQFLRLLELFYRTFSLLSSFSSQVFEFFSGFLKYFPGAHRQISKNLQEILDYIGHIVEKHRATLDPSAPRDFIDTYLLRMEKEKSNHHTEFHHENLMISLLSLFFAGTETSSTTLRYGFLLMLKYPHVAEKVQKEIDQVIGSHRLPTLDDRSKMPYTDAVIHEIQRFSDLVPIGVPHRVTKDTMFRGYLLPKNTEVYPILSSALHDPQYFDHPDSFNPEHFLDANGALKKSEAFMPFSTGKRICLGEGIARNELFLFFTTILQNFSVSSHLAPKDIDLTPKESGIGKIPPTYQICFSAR
The description is as above. It counts as in vitro ADME. The settings on record: 100 μM C1632, probe 10 μM bupropion, 30 min, 37°C. On the procedure: as §1

Another series deals with T4, CYP2D1 (Rattus norvegicus, UniProt P10633).
T4 construct: 3.4 mg/ml pooled rat liver microsomes; from tissue; host or cells: pooled rat liver microsomes
T4 sequence (P10633 1-504): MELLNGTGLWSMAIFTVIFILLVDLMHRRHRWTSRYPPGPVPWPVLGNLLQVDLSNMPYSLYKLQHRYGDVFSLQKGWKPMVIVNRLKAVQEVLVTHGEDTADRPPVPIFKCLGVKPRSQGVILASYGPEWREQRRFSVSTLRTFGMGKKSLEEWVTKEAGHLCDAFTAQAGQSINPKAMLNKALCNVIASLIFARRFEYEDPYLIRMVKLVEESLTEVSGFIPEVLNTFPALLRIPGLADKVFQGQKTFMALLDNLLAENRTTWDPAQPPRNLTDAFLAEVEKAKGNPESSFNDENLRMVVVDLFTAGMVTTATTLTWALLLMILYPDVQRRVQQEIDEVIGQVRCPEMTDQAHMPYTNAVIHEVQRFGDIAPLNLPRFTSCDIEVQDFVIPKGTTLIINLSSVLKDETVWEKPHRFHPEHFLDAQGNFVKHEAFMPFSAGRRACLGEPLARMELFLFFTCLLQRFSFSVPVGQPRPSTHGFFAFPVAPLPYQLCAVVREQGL
The series is described as above. It counts as in vitro ADME. To be noted: 100 μM C1632, probe 10 μM dextromethorphan, 30 min, 37°C. The procedure: as §1

Consider `CC(=O)N(C)c1cccc(-c2ccc3nnc(C)n3n2)c1` [C1632], for which the “expression of MMP-9” value in series [1] is listed as “efficiently decreased”. The “effect on CYP2C11 activity” value at CYP2C11 is “significantly inhibit”. The “effect on CYP3A2 activity” value at CYP3A2 is given as “significantly inhibit”. Moreover, at CYP2B1, the “effect on CYP2B1 activity” value was “significantly inhibit”. The “effect on CYP2D1 activity” value on CYP2D1 was “significantly inhibit”.
